Source: publication PMC11056991, “Promising Anticancer Prodrugs Based on Pt(IV) Complexes with Bis-organosilane Ligands in Axial Positions” (Journal of Medicinal Chemistry, 2024)
Like-named read-outs stand apart in the source and are kept apart here.

How the values were obtained:
[1] = test system: HT-29 human colon cancer cells; conditions: MTT, Figure S14E
Experimental: Cells were maintained at 37 °C in a humidified atmosphere containing 5% CO2.

[2] = test system: HCT 116 human colon cancer cells; assay: MTT cell viability assay, HCT 116; assay type: cell-based; conditions: for IC50: 48 h
Experimental: (§1) HIEC6 human healthy intestinal cells and HCT 116 and HT-29 human colon cancer cells were supplied by ATCC. Colon cancer cells were cultured in Dulbecco’s modified Eagle’s medium (DMEM) for HCT 116 and HT-29 supplemented with fetal bovine serum (10%). HIEC6 cells were cultured in Opti-MEM supplemented with fetal bovine serum (4%), HEPES (20 mM), glutamine (10 mM), and epidermal growth factor (10 ng/mL). Cells were maintained at 37 °C in a humidified atmosphere containing 5% CO2. Cells were seeded at 30% confluence in DMEM for HCT 116 and in Opti-MEM for HIEC6; after cell adhesion, HIEC6 cells were cultured in DMEM for 24h before being treated. All cells were treated with the indicated components at concentrations of 0.25–50 μM and incubated for 1–5 days as specified.
(§2) The MTT assay relies on a colorimetric reaction based on the capacity of living cells to reduce MTT to formazan and change the color to purple, which is easily measured by colorimetry. This assay estimates the cellular viability after the indicated treatments. Cells were treated with MTT (1:10 in culture medium) and incubated at 37 °C for 3 h for HCT 116 and HT-29 or 6 h for HIEC6. After removal of the medium, the formazan was resuspended in DMSO, transferred to p96 plates, and analyzed by a SpectraFLUOR (Tecan) at 542 nm. In all cases, viability was measured in duplicates of each point in three independent experiments.

[3] = 195Pt NMR reduction kinetics with glutathione; assay type: physicochemical; conditions: GSH 4:1 excess, DMSO/D2O (4:1), 37 °C, 2, 6, 24 h
Experimental: AsA presents an intracellular concentration of 1 mM, whereas the GSH concentration is 2 mM.[38] This reactivity was monitored by ^195Pt NMR at different times. Thus, by analyzing the different regions where the signals of Pt(II)/Pt(IV) species appear, it is possible to identify and assign the different compounds formed during the reaction. In most cases, the regions where the Pt(II) and Pt(IV) signals appear are separated by more than 3000 ppm.[33]
The reactivity of both complexes toward the reducing agent GSH was also studied using the DMSO/D2O (4:1) mixture. […] In the Pt(II) region, two signals appeared after 24 h at −2728 and −3405 ppm (Figure 2G). The first value is consistent with the cis-PtN2SX fraction,[41],[42] meaning that this species, once reduced to its Pt(II) homologue, coordinates with GSH by displacing a chloride ligand. The second signal corresponds to another Pt(II) moiety with more than one ligand containing sulfur atoms. […]
Each solution was then slowly added to 100 μL of a solution of the corresponding reducing agent (AsA or GSH in an excess of 4:1 against each complex) in D2O at 37 °C. […] Each sample was monitored by ^195Pt NMR at 2, 6, and 24 h.

[4] = In vivo toxicity and tolerance in tumor-bearing mice; set-up: species or system athymic nude Foxn1nu mice
Source text: The in vitro results encouraged us to explore the translational potential in a preclinical in vivo model of nude mice with grafted tumor cells. […] Tumor growth was monitored until tumors in the control group reached the ethically allowed size. […] On the other hand, many types of cancer cause a general increase in lactate dehydrogenase (LDH), and it is considered a nonspecific tumor marker.[57] Both treatments reduced LDH levels compared to those of untreated animals (PBS), reflecting the response to treatment.
To establish the subcutaneous tumor, 2 × 10^6 HCT 116 colon carcinoma cells were resuspended 1:1 in culture media and Matrigel (BD) and injected subcutaneously. Six to eight week old female athymic nude Foxn1nu mice (Harlan Iberica) were used for each point. […] Two therapeutic approaches were compared: acute and chronic (see diagram in Figure 5). Acute treatment was performed (three injections of 10 mg/kg); chronic treatment relied on injections of 1 mg/kg every 3–4 days. […] Tumor growth was monitored by personnel unaware of the group distribution. Experiments were finalized when control animals achieved the maximum tumor size approved by the Ethical Committee. Animals were sacrificed by euthanasia by CO2 inhalation. Selected organs were collected from each animal for histopathological analysis. Samples were fixed in 4% paraformaldehyde for 2 h followed by cold 70% ethanol. Plasma serum was collected to determine hepatic and renal toxicity of treatments using a SPIN200E automatic bioanalyzer (Spinreact).

[5] = test system: HIEC6 human healthy intestinal cells; assay: MTT cell viability assay, HIEC6; assay type: cell-based; conditions: for IC50: 48 h
Experimental: as §1, §2

[6] = MTT, 5 uM, 2 days, (final complexes, Figure 3B)
[7] = MTT, second (last) column of this head
[8] = mice after treatment, versus cisplatin

**Q.** What does the source list for CC(C)N.CC(C)N.CCO[Si](CCCNC(=O)[O][Pt]([Cl])([Cl])[O]C(=O)NCCC[Si](OCC)(OCC)OCC)(OCC)OCC [Pt(IV)-biSi-2, cis-Dichloro(diisopropylamine)-trans-[3-(triethoxysilyl)propylcarbamate]platinum(IV)]?
**A.** Cytotoxic effect on colon cancer cells (HT-29) [1]: strong cytotoxic effect; Fold greater cytotoxicity than cisplatin, HCT 116 ([2]; 5 μM, 5 days chronic treatment): 8–10 fold; Cell viability, HCT 116 0.5uM 2 days ([2]; MTT, 0.5 uM, 2 days): 49.4 ± 3.2%; Reduction of viability (cytotoxicity) of HCT 116 tumor cells ([2]; MTT, 0.5 μM, 2 days): 50%; Cell viability, HCT 116 0.5uM 5 days ([2]; MTT, 0.5 uM, 5 days): 60.2 ± 14.4%; Reduction of tumor cell viability (HCT 116) ([2]; MTT, 0.5 μM, 5 days): 40%; Reduction in viability of cancer cells (HCT 116) ([2]; MTT, 5 μM, 2 days): 90%; Cell viability, HCT 116 5uM 2 days [2, 6]: 4.4 ± 0.8%; Cells survived, HCT 116 ([2]; MTT, 5 μM, 5 days chronic treatment): 5%; IC50 ([2]; MTT, Figure 3C and text, read-out: IC50 (μM), HCT 116): 0.94 µM; IC50 ([2]; MTT, supplementary CSV, read-out: IC50 (uM) HCT 116): 0.9 ± 0.6 µM; Cell viability, HCT 116 […] 2 days ([2]; MTT, 2 days): 59.6 ± 2.9%; Cell viability, HCT 116 […] 2 days [2, 7]: 59.1 ± 0.8%; Reduction of the Pt(IV) complex by GSH (Pt(IV) signal in 195Pt NMR) [3]: practically disappeared after 24 h; Side effects (weight loss greater than 5% or abnormal postures) or deaths ([4]; acute and chronic treatment): No side effects (weight loss greater than 5% or abnormal postures) or deaths of the mice were observed; Hepatic toxicity (uric acid and GPT levels in plasma) [4, 8]: significantly lower; Renal toxicity (creatinine levels in plasma) [4, 8]: significantly lower; Fold higher concentration needed to reduce nontumorigenic intestinal cell viability by 50% ([5]; IC50 HIEC6 versus IC50 HCT 116): 3.7 fold; Cell viability, HIEC6 0.5uM 2 days ([5]; MTT, 0.5 uM, 2 days): 92.5 ± 0.9%; Cell viability, HIEC6 0.5uM 5 days ([5]; MTT, 0.5 uM, 5 days): 84.1 ± 4.7%; Reduction in viability of healthy cells (HIEC6) ([5]; MTT, 5 μM, 2 days): 60%; Cell viability, HIEC6 5uM 2 days [5, 6]: 41.2 ± 1.5%; IC50 ([5]; MTT, Figure 3C and text, read-out: IC50 (μM), HIEC6): 3.47 µM; IC50 ([5]; MTT, supplementary CSV, read-out: IC50 (uM) HIEC6): 3.5 ± 0.6 µM; Cell viability, HIEC6 […] 2 days ([5]; MTT, 2 days): 97.8 ± 4.0%; Cell viability, HIEC6 […] 2 days [5, 7]: 98.8 ± 6.1%
